Source: PMC6675551, “Mass spectrometry–driven exploration reveals nuances of neoepitope-driven tumor rejection” (JCI Insight, 2019)

Tests used:
[1] = tested on: Meth A fibrosarcoma tumor cells; assay: Tumor rejection after immunization with neoepitope-pulsed BMDCs and Meth A challenge; format: in vivo, BALB/cJ mice; conditions: for Tumor rejection activity (in words): immunized twice 1 week apart with neoepitope-pulsed BMDCs (3 × 10^6), challenge with 95,000 Meth A cells 1 week later, CTLA4 blockade except TGAARFDEF
Excerpt: The 8 MS-defined neoepitopes were used to immunize naive BALB/cJ mice twice, 1 week apart, with neoepitope-pulsed bone marrow–derived dendritic cells (BMDCs, 3 × 10^6) as adjuvants, as previously published ([22]). All mice were challenged with 95,000 Meth A tumor cells 1 week after the second immunization, and tumor growth was monitored in individual mice (Figure 2, A and B). […] The TCI score parameterizes the tumor rejection, tumor inhibition, and tumor stability scores to produce a total TCI score, which reflects the control of the tumor growth in each group.
Day 7 BMDCs were pulsed with 40 μg of the neoepitope (1 μL of a 20 mM neoepitope solution was added to 7.5 million BMDCs in 200 μL RPMI medium for final peptide concentration of 100 μM). The pulsed BMDCs were washed 4 times and used to immunize a single mouse. Mice were randomized before being used for immunization with individual peptides to control for any cage effects. All immunizations were performed in the presence of CTLA4 blockade, using the […] (clone 9D9, Bio X Cell), administered with the second immunization and every 3 days after tumor challenge except for peptide TGAARFDEF. Tumor diameters were measured in 2 dimensions and the average diameter determined.
TCI quantitates and integrates all 3 aspects of tumor growth: inhibition, period of tumor size stability, and tumor shrinkage (complete response), as published previously ([23]).

[2] = tested on: Meth A fibrosarcoma tumor cells; assay: CD8 depletion in vivo during priming of neoepitope-immunized mice; set-up: species or system BALB/cJ mice; conditions: 250 μg anti-CD8 depleting antibody or isotype control 6 days before first immunization (priming phase)
Procedure: CD8 dependence of neoepitope-elicited tumor immunity was tested in the case of the peptide TGAARFDEF (derived from Gtf2b) by depletion of neoepitope-immunized mice by anti-CD8 depleting antibody or an isotype control antibody during the priming phase alone, as described in the Methods. […] The kinetics of recovery of the depleted CD8^+ cells in mice is not uniform, resulting in lack of abrogation of immunity in 2 of the 5 mice. Because depletion of CD4^+ T cells results in depletion of helper as well as regulatory CD4^+ T cells, and the 2 effects are contradictory, depletion of CD4^+ cells was not attempted.
BALB/cJ mice were injected with 250 μg of isotype control (InVivoMAb rat IgG2b isotype control, Bio X Cell) or CD8-depleting antibody (InVivoMAb anti–mouse CD8α, rat IgG2b, clone 2.43, Bio X Cell) antibodies 6 days before the first immunization (priming phase). The CD8^+ cells remained completely depleted in all mice until day 6; after that the recovery was variable.

tetramer+ CD8+ T cells [3] = assay: Tetramer staining of CD8+ T cells in immunized naive non-tumor-bearing mice; format: in vivo, BALB/cJ mice; conditions: for Tetramer+ cells of total CD8+ T cells, blood: blood harvested 1 week after second immunization; for CD8+ T cell response by tetramer staining (in words): immunized naive, non-tumor-bearing mice
Procedure: In parallel, naive, non–tumor-bearing mice immunized with the neoepitopes were tested for CD8^+ T cell responses to 7 of the 8 neoepitopes. ELISpot assays could not be performed because of the high background generated by incubation of T cells with any DCs. […] Tetramer staining was therefore used for better sensitivity and specificity (Figure 2D). (Tetramers against the neoepitope MAPVRTASM derived from Aebp1 gene could not be made.) Blood and the spleen of the immunized mice were harvested 1 week after the second immunization and stained for CD3, CD8, as well as specific binding to neoepitope tetramers (Figure 2, D and E). Of the 2 neoepitopes able to strongly elicit tumor rejection (TGAARFDEF and AYMKMLSSSL), only TGAARFDEF elicited a measurable CD8^+ T cell response as detected by tetramer staining. […] Of these, the response elicited by VGPEILSSL (derived from Trib3) was the strongest CD8^+ T cell response among all neoepitopes; approximately 10% of the CD8^+ T cells (in blood) in mice immunized with it were tetramer^+. As controls, we measured, in 2 instances, tetramer response in mice immunized with an irrelevant neoepitope; such nonspecific response was never detected.
(§1) The antibody specific for Fixable Viability Dye eFluor 780 was purchased from eBioscience. PE tetramer specific for each neoepitope was synthesized, validated, and tested by MBL International Corporation. Tetramer testing was performed prior to product release according to standard operating procedures of MBL, and the tetramers were further tested for specificity in our laboratory. The FITC-labeled antibody specific for CD8 (clone KT15) was purchased from the same company. BV510 CD3 (clone 17A2) was purchased from Biolegend. Mouse FcR blocking reagent was purchased from Miltenyi Biotec. Flow cytometry was performed using Miltenyi Biotec MACSQuant analyzer. The analysis was done using FlowJo software (FlowJo LLC).

tetramer+ CD8+ T cells [4] = assay: Tetramer staining of CD8+ T cells in non-immunized tumor-bearing mice; format: in vivo, BALB/cJ mice; conditions: unimmunized Meth A tumor-bearing mice, blood and spleen
Procedure: Thus, of the 7 neoepitopes tested, 4 neoepitopes elicited expansion of tetramer^+ CD8^+ T cells on immunization of naive, non–tumor-bearing mice (Figure 2E). We now examined CD8^+ T cell responses to the 4 neoepitopes in unimmunized, tumor-bearing mice (Figure 2F). […] As controls, CD8 cells from mice bearing an antigenically irrelevant tumor (4T1) were tested for tetramer response to all 7 neoepitopes; no response was detected. Altogether, CD8^+ T cell responses in non-immunized tumor-bearing mice and immunized tumor-naive mice were often discordant.
as §1

IFN-γ+ CD8+ cells = IFN-γ+ CD8+ cells from mice immunized with individual peptides; format: in vivo, BALB/cJ mice; conditions: data not shown
[5] = neoepitope-pulsed BMDC immunization, 95,000 Meth A cells challenge

Sequence | Tumor rejection activity (in words) [1] | CD8+ T cell response by tetramer staining (in words) (tetramer+ CD8+ T cells [4]) | CD8+ T cell response by tetramer staining (in words) (tetramer+ CD8+ T cells [3]) | further results
TGAARFDEF | complete tumor rejection | could not detect a measurable CD8^+ T cell response |  | CD8 dependence of neoepitope-elicited tumor immunity [2]: completely abolished the neoepitope-elicited tumor rejection in 3 of the 5 mice; Tetramer+ cells of total CD8+ T cells, blood (tetramer+ CD8+ T cells [3]; immunized naive mice): approximately 0.7%; Tetramer+ cells of total CD8+ T cells, spleen (tetramer+ CD8+ T cells [3]; immunized naive mice, spleen harvested 1 week after second immunization): ~0.43%; IFN-γ+ CD8+ cell response (IFN-γ+ CD8+ cells): a specific response was detected
KYLQVASHV | inactive |  |  | 
YIRPFETKVK |  |  |  | Tumor Rejection Score (max score = 5) ([1]; BALB/cJ mice immunized with peptide-pulsed BMDCs, Meth A challenge, Table 2): 4.5
SYLLGSGEARL |  |  |  | Immunized mice able to reject the tumor completely [1, 5]: about 50%
KYLQVASHVGL | did not elicit tumor rejection | did not elicit such a response | strong CD8^+ T cell response | 
AYMKMLSSSL |  |  | did not elicit a measurable CD8^+ response | Immunized mice able to reject the tumor completely [1, 5]: 60%; Immunized mice with relatively prolonged tumor stabilization [1, 5]: 30%
IGPRALDVL | intermediate tumor rejection | significant CD8^+ T cell response | good tetramer CD8^+ T cell response | 
IGPRAVDVL [reference compound] | intermediate tumor rejection activity |  |  | Tetramer+ cells (CD8+ T cell response), tissue not stated (tetramer+ CD8+ T cells [3]; immunized naive mice, 1 week after second immunization): ~ 0.35%
VGPEILSSL | no tumor rejection | significant CD8^+ T cell response |  | Tetramer+ cells of total CD8+ T cells, blood (tetramer+ CD8+ T cells [3]; immunized naive mice): approximately 10%
